Experimental data from patent publication US20250120927A1, “CNDP2 MODULATORS AND METHODS FOR THEIR USE” (Metabolon Inc., priority 2023, published 2025).
Where “and” joins values, the source holds several entries; their conditions need not be identical. Identical values can stand only once. Counter-ions that a name gives are not always drawn.

biological target: CNDP2 (Homo sapiens (Human), UniProt Q96KP4); test: CNDP2 enzyme inhibition assay (Met-His hydrolysis, free histidine by o-phthaldialdehyde fluorescence), dose-response; assay type: biochemical; settings: 50 nM purified CNDP2 (Sino Biological), 1 mM Met-His substrate, 30 minutes at 37° C.; TABLE 1
Sequence (Q96KP4 whole entry): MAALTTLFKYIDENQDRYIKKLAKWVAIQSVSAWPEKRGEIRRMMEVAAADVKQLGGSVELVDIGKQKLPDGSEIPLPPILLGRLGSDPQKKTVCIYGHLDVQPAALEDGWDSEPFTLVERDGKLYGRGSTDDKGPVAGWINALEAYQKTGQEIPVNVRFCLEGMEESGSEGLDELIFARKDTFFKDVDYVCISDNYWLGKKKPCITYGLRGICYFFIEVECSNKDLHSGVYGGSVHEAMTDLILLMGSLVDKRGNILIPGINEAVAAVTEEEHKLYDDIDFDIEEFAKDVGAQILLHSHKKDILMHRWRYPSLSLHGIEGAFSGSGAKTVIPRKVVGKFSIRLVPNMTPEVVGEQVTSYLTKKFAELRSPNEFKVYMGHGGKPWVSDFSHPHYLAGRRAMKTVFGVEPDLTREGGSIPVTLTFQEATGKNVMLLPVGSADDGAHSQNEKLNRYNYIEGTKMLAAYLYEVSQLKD
Protocol: To identify optimal conditions for identifying novel inhibitors of CNDP2, enzyme assays were performed with varied sources of purified enzyme, concentrations of enzyme, peptide substrates, concentrations of peptide substrates and metal cofactors. […] The reaction mixture was incubated for 30 minutes at 37° C. before it was quenched with an equal volume of 1% TCA. Free histidine was quantified after derivatization with a fluorophore (o-phthaldialdehyde from Sigma-Aldrich, excitation 340 nm, emission 460 nm). The reaction was conducted in an automation-friendly format to meet future screening throughput demands. A histidine titration standard curve was also included to enable conversion of fluorescence signal to molar concentration of histidine released by the hydrolysis reaction and to ensure the linearity of the fluorescence signal vs. free histidine.
Compounds of Formula (I) disclosed herein were screened for potency in inhibiting CNDP2 enzyme activity in a dose-response experiment. Bestatin was included with each batch of test molecules as a benchmark for assay quality control.

IC50 [nM]	Compound
100 to 1000	N[C@H](Cc1ccccc1)[C@H](O)C(=O)N[C@H](C(=O)O)C1CCCC1 [Compound 4, (2S)-2-[[(2S,3R)-3-amino-2-hydroxy-4-phenyl-butanoyl]amino]-2-cyclopentyl-acetic acid]
≥ 1000	CC(C)C[C@H](NC(=O)[C@@H](O)[C@H](N)Cc1cccc(Br)c1)C(=O)O [Compound 41]
≥ 1000	CC(C)C[C@H](NC(=O)[C@@H](O)[C@H](N)Cc1ccccc1)C(=O)O [bestatin, reference compound]
≥ 1000	COc1cccc(C(NC(=O)[C@@H](O)[C@H](N)Cc2ccccc2)C(=O)O)c1 (stereo partly shown) [Compound 32]
100 to 1000	N[C@H](Cc1ccccc1)[C@H](O)C(=O)NC(C(=O)O)C1CCCCCC1 (stereo partly shown) [Compound 30]
≥ 1000	COc1ccccc1[C@H](NC(=O)[C@@H](O)[C@H](N)Cc1ccccc1)C(=O)O [Compound 8, (2S)-2-[[(2S,3R)-3-amino-2-hydroxy-4-phenyl-butanoyl]amino]-2-(2-methoxyphenyl)acetic acid]

Second part, the compound before the results:

Compound	IC50 [nM]
N[C@H](Cc1ccccc1)[C@H](O)C(=O)NC(C(=O)NO)c1cccc(C(F)(F)F)c1 (stereo partly shown) [Compound 45]	100 to 1000
N[C@H](Cc1ccccc1OC(F)(F)F)[C@H](O)C(=O)N[C@H](C(=O)O)c1cccc(OC(F)(F)F)c1 [Compound 61]	100 to 1000
N[C@H](Cc1ccccc1)[C@H](O)C(=O)NC(CC1CCOCC1)C(=O)O (stereo partly drawn) [Compound 23, 2-[[(2S,3R)-3-amino-2-hydroxy-4-phenyl-butanoyl]amino]-3-tetrahydropyran-4-yl-propanoic acid]	< 100
CC1(C)CC(C(NC(=O)[C@@H](O)[C@H](N)Cc2ccccc2)C(=O)O)CCO1 (stereo partly shown) [Compound 38]	≥ 1000
N[C@H](Cc1ccccc1)[C@H](O)C(=O)N[C@@H](Cc1ccc(Br)cc1)C(=O)O [Compound 25, 2-[[(2S,3R)-3-amino-2-hydroxy-4-phenyl-butanoyl]amino]-3-(4-bromophenyl)propanoic acid]	< 100
N[C@H](Cc1ccccc1)[C@H](O)C(=O)NC1(C(=O)O)CCCC1 [Compound 15, 1-[[(2S,3R)-3-amino-2-hydroxy-4-phenyl-butanoyl]amino]cyclopentane carboxylic acid]	≥ 1000
COc1ccc(C[C@H](NC(=O)[C@@H](O)[C@H](N)Cc2ccccc2)C(=O)O)cc1 [Compound 18, (2S)-2-[[(2S,3R)-3-amino-2-hydroxy-4-phenyl-butanoyl]amino]-3-(4-methoxyphenyl)propanoic acid]	≥ 1000
N[C@H](Cc1ccccc1)[C@H](O)C(=O)N[C@@H](Cc1ccc(F)cc1)C(=O)O [Compound 1, (S)-2-((2S,3R)-3-amino-2-hydroxy-4-phenylbutanamido)-3-(4-fluorophenyl)propanoic acid]	≥ 1000
CCC(c1ccccc1)C(NC(=O)[C@@H](O)[C@H](N)Cc1ccccc1)C(=O)O (stereo partly drawn) [Compound 24, 2-[[(2S,3R)-3-amino-2-hydroxy-4-phenyl-butanoyl]amino]-3-phenyl-pentanoic acid]	≥ 1000
N[C@H](Cc1ccccc1)[C@H](O)C(=O)NC(CC1CCCC1)C(=O)O (stereo partly drawn) [Compound 17, 2-[[(2S,3R)-3-amino-2-hydroxy-4-phenyl-butanoyl]amino]-3-cyclopentyl-propanoic acid]	< 100
N[C@H](Cc1ccccc1)[C@H](O)C(=O)N[C@H](C(=O)O)c1cccnc1 [Compound 9, (2S)-2-[[(2S,3R)-3-amino-2-hydroxy-4-phenyl-butanoyl]amino]-2-(3-pyridyl)acetic acid]	≥ 1000

same assay, conditions: 50 nM purified CNDP2 (Sino Biological), 1 mM Met-His substrate, 30 minutes at 37° C.; TABLE 2

IC50	Compound
≥ 1000 nM	N[C@H](Cc1ccccc1)[C@H](O)C(=O)N[C@H](C(=O)O)c1cc(C(F)(F)F)ccc1C(F)(F)F [Compound 81]
≥ 1000 nM	N[C@H](Cc1ccccc1)[C@H](O)C(=O)N[C@@H](C(=O)O)c1cc(C(F)(F)F)ccc1C(F)(F)F [Compound 80]
< 100 nM	N[C@H](Cc1ccccc1)[C@H](O)C(=O)N[C@H](C(=O)O)c1ccc(F)c(OC(F)(F)F)c1 [Compound 105, (S)-2-((2S,3R)-3-amino-2-hydroxy-4-phenylbutanamido)-2-(4-fluoro-3-(trifluoromethoxy)phenyl)acetic acid]
≥ 1000 nM	N[C@H](Cc1ccccc1)[C@H](O)C(=O)N[C@@H](C(=O)O)c1ccc(Cl)c(OC(F)(F)F)c1 [Compound 106, (R)-2-((2S,3R)-3-amino-2-hydroxy-4-phenylbutanamido)-2-(4-chloro-3-(trifluoromethoxy)phenyl)acetic acid hydrochloride]
≥ 1000 nM	C[C@](NC(=O)[C@@H](O)[C@H](N)Cc1ccccc1)(C(=O)O)c1cccc(OC(F)(F)F)c1 [Compound 89, (R)-2-((2S,3R)-3-amino-2-hydroxy-4-phenylbutanamido)-2-(3-(trifluoromethoxy)phenyl)propanoic acid]
≥ 1000 nM	N[C@H](Cc1ccccc1)[C@H](O)C(=O)NC(C(=O)O)c1cc(C(F)(F)F)cc(C(F)(F)F)c1 (stereo partly shown) [Compound 66]
≥ 1000 nM	N[C@H](Cc1ccccc1)[C@H](O)C(=O)NC(c1cccc(C(F)(F)F)c1)C(F)(F)C(=O)O (stereo partly shown) [Compound 64]

Further lines, the compound ahead of its results:

Compound	IC50
N[C@H](Cc1ccccc1)[C@H](O)C(=O)NC(c1cccc(C(F)(F)F)c1)c1noc(=O)[nH]1 (stereo partly shown) [Compound 71]	100 to 1000 nM
N[C@H](Cc1ccc(C(F)(F)F)cc1)[C@H](O)C(=O)N[C@H](C(=O)O)c1cccc(OC(F)(F)F)c1 [Compound 133]	≥ 1000 nM
N[C@H](Cc1ccccc1)[C@H](O)C(=O)N[C@@H](CN1CCCC(F)(F)C1)C(=O)O [Compound 82]	≥ 1000 nM
N[C@H](Cc1ccc(Br)cc1)[C@H](O)C(=O)N[C@@H](C(=O)O)c1cccc(OC(F)(F)F)c1 [Compound 130, (R)-2-((2S,3R)-3-amino-4-(4-bromophenyl)-2-hydroxybutanamido)-2-(3-(trifluoromethoxy)phenyl)acetic acid]	≥ 1000 nM
N[C@H](Cc1ccccc1)[C@H](O)C(=O)NC(C(=O)O)c1ccc(F)c(C(F)(F)F)c1 (stereo partly shown) [Compound 69]	< 100 nM
N[C@H](Cc1ccccc1)[C@H](O)C(=O)NC(CN1CCC(F)(F)CC1)C(=O)O (stereo partly shown) [Compound 72]	≥ 1000 nM
N[C@H](Cc1ccccc1)[C@H](O)C(=O)N[C@H](C(=O)O)c1cccc(C(F)(F)F)c1F [Compound 91, (S)-2-((2S,3R)-3-amino-2-hydroxy-4-phenylbutanamido)-2-(2-fluoro-3-(trifluoromethyl)phenyl)acetic acid]	100 to 1000 nM
N[C@H](Cc1ccccc1)[C@H](O)C(=O)N[C@H](C(=O)O)c1cc(F)cc(C(F)(F)F)c1 [Compound 93, (S)-2-((2S,3R)-3-amino-2-hydroxy-4-phenylbutanamido)-2-(5-fluoro-3-(trifluoromethyl)phenyl)acetic acid]	≥ 1000 nM
N[C@H](Cc1ccccc1)[C@H](O)C(=O)N[C@H](C(=O)O)c1cccc(C(F)(F)F)c1Cl [Compound 87, (S)-2-((2S,3R)-3-amino-2-hydroxy-4-phenylbutanamido)-2-(2-chloro-3-(trifluoromethyl)phenyl)acetic acid]	100 to 1000 nM
N[C@H](Cc1ccccc1)[C@H](O)C(=O)N[C@@H](C(=O)O)c1cccc(C(F)(F)F)c1F [Compound 90, (R)-2-((2S,3R)-3-amino-2-hydroxy-4-phenylbutanamido)-2-(2-fluoro-3-(trifluoromethyl)phenyl)acetic acid]	< 100 nM
N[C@H](Cc1ccc(C(F)(F)F)cc1)[C@H](O)C(=O)N[C@@H](C(=O)O)c1cccc(OC(F)(F)F)c1 [Compound 134]	≥ 1000 nM
N[C@H](Cc1ccccc1)[C@H](O)C(=O)NC(C(=O)O)c1cc(F)cc(C(F)(F)F)c1 (stereo partly shown) [Compound 68]	< 100 nM
N[C@H](Cc1ccccc1)[C@H](O)C(=O)N[C@@H](C(=O)O)c1cc(F)cc(C(F)(F)F)c1 [Compound 92, (R)-2-((2S,3R)-3-amino-2-hydroxy-4-phenylbutanamido)-2-(5-fluoro-3-(trifluoromethyl)phenyl)acetic acid]	< 100 nM
N[C@H](Cc1ccccc1)[C@H](O)C(=O)N[C@H](C(=O)O)c1ccc(F)c(C(F)(F)F)c1 [Compound 95, (S)-2-((2S,3R)-3-amino-2-hydroxy-4-phenylbutanamido)-2-(4-fluoro-3-(trifluoromethyl)phenyl)acetic acid]	≥ 1000 nM
N[C@H](Cc1ccccc1)[C@H](O)C(=O)N[C@@H](Cc1ccc(OC(F)(F)F)c(F)c1)C(=O)O [Compound 119, (S)-2-((2S,3R)-3-amino-2-hydroxy-4-phenylbutanamido)-3-(3-fluoro-4-(trifluoromethoxy)phenyl)propanoic acid]	100 to 1000 nM
N[C@H](Cc1ccccc1)[C@H](O)C(=O)N[C@@H](CN1CCC(C(F)(F)F)CC1)C(=O)O [Compound 73]	≥ 1000 nM
N[C@H](Cc1ccccc1)[C@H](O)C(=O)N[C@H](C(=O)O)c1cccc2c1OC(F)(F)O2 [Compound 115, (S)-2-((2S,3R)-3-amino-2-hydroxy-4-phenylbutanamido)-2-(2,2-difluorobenzo[d][1,3]dioxol-4-yl)acetic acid hydrochloride]	≥ 1000 nM and 100 to 1000 nM
N[C@H](Cc1ccccc1)[C@H](O)C(=O)N[C@@H](C(=O)O)c1cc(Cl)cc(OC(F)(F)F)c1 [Compound 108, (R)-2-((2S,3R)-3-amino-2-hydroxy-4-phenylbutanamido)-2-(3-chloro-5-(trifluoromethoxy)phenyl)acetic acid hydrochloride]	≥ 1000 nM

same assay, conditions: bestatin 10 microM down to 5 pM; consistent across run days

IC50 [nM]	Compound
~2000	CC(C)C[C@H](NC(=O)[C@@H](O)[C@H](N)Cc1ccccc1)C(=O)O [bestatin, reference compound]
